Counter-ions that a name gives are not always drawn.
Experiments:
VEGF = biological target: T1, VEGF (Homo sapiens, UniProt P15692); assay: Growth factor binding assay (SPR solution affinity), VEGF; conditions: HBS-EP buffer, 25° C.
T1 sequence (P15692 207-395): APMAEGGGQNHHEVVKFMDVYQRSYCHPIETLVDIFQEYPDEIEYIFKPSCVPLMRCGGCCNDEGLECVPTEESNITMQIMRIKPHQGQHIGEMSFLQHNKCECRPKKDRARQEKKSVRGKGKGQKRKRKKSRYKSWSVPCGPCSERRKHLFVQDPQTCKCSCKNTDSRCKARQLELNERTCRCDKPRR
Description: (§1) Binding affinities of compounds for the growth factors FGF-1, FGF-2 and VEGF were measured using a surface plasmon resonance (SPR) based solution affinity assay.^9 Heparin-coated sensorchips used for this assay were prepared via immobilisation of biotinylated BSA-heparin on a streptavidin-coated sensorchip, or via aldehyde coupling using either adipic acid dihydrazide or 1,4-diaminobutane.^9 For each Kd measurement, solutions were prepared containing a fixed concentration of protein and varying concentrations of the ligand in buffer. Ligands binding to FGF-1 and VEGF were measured in HBS-EP buffer (10 mM HEPES, pH 7.4, 150 mM NaCl, 3.0 mM EDTA and 0.005% (v/v) polysorbate 20), while binding to FGF-2 was measured in HBS-EP buffer containing 0.3 M NaCl. Prior to injection, samples were maintained at 4° C. to maximise protein stability. For each assay mixture, 50-200 μL of solution was injected at 5-40 μL/min and the relative binding response measured. All surface binding experiments were performed at 25° C. The surface was regenerated by injection of 40 μL of 4M NaCl at 40 μL/min, followed by injection of 40 μL of buffer at 40 μL/min.
(§2) Sensorgram data were analysed using the BIAevaluation software (BIAcore) and Kd values determined as previously described.^9 Where Kd values were measured in duplicate, the values represent the average of the duplicate measurements.

FGF-1 = FGF-1 (Homo sapiens, UniProt P05230); assay: Growth factor binding assay (SPR solution affinity), FGF-1; conditions: SPR, HBS-EP buffer, 25° C.; read-out: Kd FGF-1
Chain of FGF-1 (P05230 whole entry, species assumed): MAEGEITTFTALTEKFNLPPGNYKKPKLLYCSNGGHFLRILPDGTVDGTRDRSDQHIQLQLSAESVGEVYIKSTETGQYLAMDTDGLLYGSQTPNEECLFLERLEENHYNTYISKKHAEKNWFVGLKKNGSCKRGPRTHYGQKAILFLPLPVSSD
Description: as §1, §2

FGF-2 = FGF-2 (Homo sapiens, UniProt P09038); assay: Growth factor binding assay (SPR solution affinity), FGF-2; conditions: SPR, HBS-EP buffer containing 0.3 M NaCl, 25° C.; read-out: Kd FGF-2
Chain of FGF-2 (P09038 143-288, species assumed): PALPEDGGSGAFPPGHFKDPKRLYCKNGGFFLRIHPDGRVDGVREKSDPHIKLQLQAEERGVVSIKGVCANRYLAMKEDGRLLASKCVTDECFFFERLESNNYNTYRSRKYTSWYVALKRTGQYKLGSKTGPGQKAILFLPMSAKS
Description: as §1, §2

[1] = tested on: pooled normal human plasma; assay: Anticoagulant activity, APTT; conditions: 0.1 mg/mL in normal pooled human plasma
Description: APTT measurements were performed on a STAGO STA-Compact Coagulation Analyser using standard protocols according to the manufacturer's instructions. Unfractionated heparin (UFH) was used as a control.

[2] = tested on: normal pooled human plasma; assay: Anticoagulant activity, Heptest; conditions: 0.1 mg/mL in normal pooled human plasma
[3] = biological target: T2, recombinant human heparanase (Homo sapiens, UniProt Q9Y251); assay: Heparanase inhibition assay (fondaparinux cleavage, WST-1); conditions: read-out: Ki Heparanase; IC50 converted into Ki; fondaparinux 100 μM, pH 5.0
T2 sequence (Q9Y251 158-543 limits assumed): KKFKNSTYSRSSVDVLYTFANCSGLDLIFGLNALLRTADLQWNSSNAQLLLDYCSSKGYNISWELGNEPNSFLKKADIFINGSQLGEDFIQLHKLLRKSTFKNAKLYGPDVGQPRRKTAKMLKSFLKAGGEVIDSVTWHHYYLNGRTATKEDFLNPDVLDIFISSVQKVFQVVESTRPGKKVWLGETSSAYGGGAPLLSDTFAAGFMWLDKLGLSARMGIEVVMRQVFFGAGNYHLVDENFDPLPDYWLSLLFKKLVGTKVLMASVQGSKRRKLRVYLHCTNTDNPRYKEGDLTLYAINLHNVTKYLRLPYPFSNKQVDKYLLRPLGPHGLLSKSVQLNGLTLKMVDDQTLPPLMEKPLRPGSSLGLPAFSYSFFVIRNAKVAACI
T2 sequence (Q9Y251 36-109 limits assumed): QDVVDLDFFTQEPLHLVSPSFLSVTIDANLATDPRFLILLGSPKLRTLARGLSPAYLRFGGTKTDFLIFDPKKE

| SMILES | Kd (VEGF) | Kd (FGF-1) | Kd (FGF-2) | APTT [1] | Heptest [2] | Ki [3] |
| --- | --- | --- | --- | --- | --- | --- |
| CC(C)CCCC(C)C1CCC2C3CC=C4CC(OC5OC(COS(=O)(=O)O)C(OS(=O)(=O)O)C(OS(=O)(=O)O)C5OC5OC(COS(=O)(=O)O)C(OS(=O)(=O)O)C(OC6OC(COS(=O)(=O)O)C(OS(=O)(=O)O)C(OC7OC(COS(=O)(=O)O)C(OS(=O)(=O)O)C(OS(=O)(=O)O)C7OS(=O)(=O)O)C6OS(=O)(=O)O)C5OS(=O)(=O)O)CCC4(C)C3CCC12C [Compound 17, 3β-Cholesteryl 2,3,4,6-tetra-O-sodium sulfonato-α-D-mannopyranosyl-(1→3)-2,4,6-tri-O-sodium sulfonato-α-D-mannopyranosyl-(1→3)-2,4,6-tri-O-sodium sulfonato-α-D-mannopyranosyl-(1→2)-3,4,6-tri-O-sodium sulfonato-α-D-mannopyranoside] | 24 ± 6 nM | 3.2 ± 0.5 nM | – | – | – | – |
| CCCCCCCCCCCCCCCCCC(=O)NCCCOC1OC(COS(=O)(=O)O)C(OS(=O)(=O)O)C(OS(=O)(=O)O)C1OC1OC(COS(=O)(=O)O)C(OS(=O)(=O)O)C(OC2OC(COS(=O)(=O)O)C(OS(=O)(=O)O)C(OC3OC(COS(=O)(=O)O)C(OS(=O)(=O)O)C(OS(=O)(=O)O)C3OS(=O)(=O)O)C2OS(=O)(=O)O)C1OS(=O)(=O)O [Compound 24, 3-Stearamidopropyl 2,3,4,6-tetra-O-sodium sulfonato-α-D-mannopyranosyl-(1→3)-2,4,6-tri-O-sodium sulfonato-α-D-mannopyranosyl-(1→3)-2,4,6-tri-O-sodium sulfonato-α-D-mannopyranosyl-(1→2)-3,4,6-tri-O-sodium sulfonato-α-D-mannopyranoside] | 40 ± 17 nM | 0.44 ± 0.04 nM | 108 ± 11 nM | 68.1 s | 24.5 s | 6 ± 2.1 nM |
| CC(C)CCCC(C)C1CCC2C3CCC4CC(OC5OC(COS(=O)(=O)O)C(OS(=O)(=O)O)C(OS(=O)(=O)O)C5OC5OC(COS(=O)(=O)O)C(OS(=O)(=O)O)C(OC6OC(COS(=O)(=O)O)C(OS(=O)(=O)O)C(OC7OC(COS(=O)(=O)O)C(OS(=O)(=O)O)C(OC8OC(COS(=O)(=O)O)C(OS(=O)(=O)O)C(OS(=O)(=O)O)C8OS(=O)(=O)O)C7OS(=O)(=O)O)C6OS(=O)(=O)O)C5OS(=O)(=O)O)CCC4(C)C3CCC12C [Compound 27, 3β-Cholestanyl 2,3,4,6-tetra-O-sodium sulfonato-α-D-mannopyranosyl-(1→3)-2,4,6-tri-O-sodium sulfonato-α-D-mannopyranosyl-(1→3)-2,4,6-tri-O-sodium sulfonato-α-D-mannopyranosyl-(1→3)-2,4,6-tri-O-sodium sulfonato-α-D-mannopyranosyl-(1→2)-3,4,6-tri-O-sodium sulfonato-α-D-mannopyranoside] | 1.04 ± 0.19 nM | 0.24 ± 0.1 nM | 39 ± 6 nM | 63.3 s | 29.6 s | 5.5 ± 2.6 nM |
| CC(C)CCCC(C)C1CCC2C3CCC4CC(OC5OC(COS(=O)(=O)O)C(OS(=O)(=O)O)C(OS(=O)(=O)O)C5OC5OC(COS(=O)(=O)O)C(OS(=O)(=O)O)C(OC6OC(COS(=O)(=O)O)C(OS(=O)(=O)O)C(OS(=O)(=O)O)C6OS(=O)(=O)O)C5OS(=O)(=O)O)CCC4(C)C3CCC12C [Compound 39, 3β-Cholestanyl 2,3,4,6-tetra-O-sodium sulfonato-α-D-mannopyranosyl-(1→3)-2,4,6-tri-O-sodium sulfonato-α-D-mannopyranosyl-(1→2)-3,4,6-tri-O-sodium sulfonato-α-D-mannopyranoside] | 319 ± 19 nM | 18.5 ± 1.8 nM | 631 ± 4 nM | 50.7 s | 27.3 s | 6.4 ± 2.5 nM |
| CCCCCCCCCCCCCCCCCC(=O)NCCCOC1OC(COS(=O)(=O)O)C(OS(=O)(=O)O)C(OS(=O)(=O)O)C1OC1OC(COS(=O)(=O)O)C(OS(=O)(=O)O)C(OC2OC(COS(=O)(=O)O)C(OS(=O)(=O)O)C(OC3OC(COS(=O)(=O)O)C(OS(=O)(=O)O)C(OC4OC(COS(=O)(=O)O)C(OS(=O)(=O)O)C(OS(=O)(=O)O)C4OS(=O)(=O)O)C3OS(=O)(=O)O)C2OS(=O)(=O)O)C1OS(=O)(=O)O [Compound 44, 3-Stearamidopropyl 2,3,4,6-tetra-O-sodium sulfonato-α-D-mannopyranosyl-(1→3)-2,4,6-tri-O-sodium sulfonato-α-D-mannopyranosyl-(1→3)-2,4,6-tri-O-sodium sulfonato-α-D-mannopyranosyl-(1→3)-2,4,6-tri-O-sodium sulfonato-α-D-mannopyranosyl-(1→2)-3,4,6-tri-O-sodium sulfonato-α-D-mannopyranoside] | 2.7 ± 0.5 nM | 0.17 ± 0.07 nM | 80 ± 40 nM | 217.0 s | 58.5 s | 4.4 ± 1.4 nM |
| CC(C)CCCC(C)C1CCC2C3CCC4CC(OCc5cn(CCCOC6OC(COS(=O)(=O)O)C(OS(=O)(=O)O)C(OS(=O)(=O)O)C6OC6OC(COS(=O)(=O)O)C(OS(=O)(=O)O)C(OC7OC(COS(=O)(=O)O)C(OS(=O)(=O)O)C(OS(=O)(=O)O)C7OS(=O)(=O)O)C6OS(=O)(=O)O)nn5)CCC4(C)C3CCC12C [Compound 48, 3-{4-(Cholestan-3β-yl-oxymethyl)-[1,2,3]triazol-1-yl}propyl 2,3,4,6-tetra-O-sodium sulfonato-α-D-mannopyranosyl-(1→3)-2,4,6-tri-O-sodium sulfonato-α-D-mannopyranosyl-(1→2)-3,4,6-tri-O-sodium sulfonato-α-D-mannopyranoside] | 460 ± 30 nM | 22.6 ± 1 nM | 480 ± 40 nM | 73.3 s | 33.1 s | 8.5 ± 0.14 nM |
| CC(C)CCCC(C)C1CCC2C3CCC4CC(OC5OC(COC6OC(COS(=O)(=O)O)C(OC7OC(COS(=O)(=O)O)C(OC8OC(COS(=O)(=O)O)C(OS(=O)(=O)O)C(OS(=O)(=O)O)C8OS(=O)(=O)O)C(OS(=O)(=O)O)C7OS(=O)(=O)O)C(OS(=O)(=O)O)C6OS(=O)(=O)O)C(OS(=O)(=O)O)C(OS(=O)(=O)O)C5OS(=O)(=O)O)CCC4(C)C3CCC12C [Compound 119, 3′-Cholestanyl 2,3,4,6-tetra-O-sulfo-α-D-glucopyranosyl-(1→4)-2,3,6-tri-O-sulfo-α-D-glucopyranosyl-(1→4)-2,3,6-tri-O-sulfo-β-D-glucopyranosyl-(1→6)-2,3,4-tri-O-sulfo-α-D-mannopyranoside, tridecasodium salt] | 7.9 ± 0.7 nM | 5.9 ± 1.6 nM | 286 ± 25 nM | 57.1 s | 28.6 s | – |
| CC(C)CCCC(C)C1CCC2C3CCC4CC(OCC(=O)NC5OC(COS(=O)(=O)O)C(OC6OC(COS(=O)(=O)O)C(OC7OC(COS(=O)(=O)O)C(OS(=O)(=O)O)C(OS(=O)(=O)O)C7OS(=O)(=O)O)C(OS(=O)(=O)O)C6OS(=O)(=O)O)C(OS(=O)(=O)O)C5OS(=O)(=O)O)CCC4(C)C3CCC12C (stereo not shown) [Compound 134] | 1080 ± 200 nM | 13 ± 3 nM | 630 ± 30 nM | – | – | – |
| CC(C)CCCC(C)C1CCC2C3CCC4CC(OC(C(OS(=O)(=O)[O-])C(OS(=O)(=O)O)C(OC5OC(COS(=O)(=O)O)C(OC6OC(COS(=O)(=O)O)C(OC7OC(COS(=O)(=O)O)C(OS(=O)(=O)O)C(OS(=O)(=O)O)C7OS(=O)(=O)O)C(OS(=O)(=O)O)C6OS(=O)(=O)O)C(OS(=O)(=O)O)C5OS(=O)(=O)O)C(COS(=O)(=O)O)OS(=O)(=O)O)[n+]5ccccc5)CCC4(C)C3CCC12C [Compound 140, 3′-Cholestanyl 2,3,4,6-tetra-O-sulfo-α-D-glucopyranosyl-(1→4)-2,3,6-tri-O-sulfo-α-D-glucopyranosyl-(1→4)-2,3,6-tri-O-sulfo-α-D-glucopyranosyl-(1→4)-((1-pyridinium-1-yl)-2,3,5,6-tetra-O-sulfo-D-glucoside, tridecasodium salt] | 12 ± 2 nM | 1.3 ± 0.6 nM | 380 ± 40 nM | – | – | – |
